# Reference: US20140348819A1, “Methods of Treating Cancer” (Dana-Farber Cancer Institute, Inc., priority 2011, published 2014)
# “And” between values parts separate entries of the source, which are not always exact repeats. Identical values can stand only once.
# Assays:
# [1] = tested on: V600E BRAF melanoma cell lines; assay: HGF-induced / stromal resistance of melanoma cell lines to BRAF, MEK and AKT inhibitors and its reversal; assay type: cell-based, human; settings: V600E BRAF melanoma cell lines with recombinant HGF
# DLD-1 cells = assay: Crizotinib synergistic effect with BRAFi in colorectal cells (FIG. 9); assay type: cell-based, human
# Text: The DLD-1 cells do harbor the BRAF activating mutation V600E but are not sensitive at all to BRAF inhibition. They actually grow faster under BRAFi.
# [2] = tested on: BRAF V600E melanoma patients; assay: Clinical response of BRAF V600E melanoma patients to BRAFi or BRAFi + MEKi (Table 7); assay type: in vivo, human; settings: one line per patient
# [3] = tested on: six V600E BRAF melanoma cell lines; assay: Screening of recombinant RTK ligands for ability to confer resistance to BRAFi (PLX4720) or MEKi (PD184352) (Table 4); assay type: cell-based, human; design: ability of recombinant RTK ligand to confer resistance / ability of recombinant RTK ligand to confer resistance (screening value): scale not given here
# Outline: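 Six V600E BRAF melanoma lines treated with PLX4720 or PD184352 after addition of 22 recombinant RTK ligands, scored for drug resistance. Activation of selected RTKs confirmed by western blotting and high-throughput tyrosine kinase phosphorylation profiling.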
# pERK/pAKT = assay: High-throughput western analysis of pERK/pAKT re-activation by RTK ligands under BRAFi/MEKi; assay type: cell-based, human; settings: under BRAFi (PLX4720); after 1 hour of cytokine treatment; six V600E BRAF melanoma cell lines
# Procedure: FIG. 23B is a western blot showing the activation of AKT (phosphorylated AKT, S473) after 1 hour and 24 hours after treatment with HGF, IGF-1 (IGF), and Insulin (INS) in the presence of BRAFi (PLX4720, 2 μM). FIG. 23C is a western blot showing the effect of HGF (25 ng/mL) on MAPK and PI3K/AKT pathway activation (pRAF1, pMEK, pERK, pAKT and pMET) in melanoma cell lines after 24 hours of treatment with 2 μM BRAFi (PLX4720) or 2 μM MEKi (PD184352).
# To understand why, of all the RTKs tested, only HGF could induce such a unique primary resistance phenotype, a high-throughput western analysis was used to test the ability of all 22 RTK ligands to re-activate pERK/pAKT under BRAFi (PLX4720) treatment in six V600E BRAF melanoma cell lines. […] However, whereas the activation of both ERK and AKT by HGF under PLX4720 treatment was long lasting, the activation of either ERK or AKT by the above cytokines was only transient and thus could not confer resistance to the melanoma cell lines.
molecule,measurement,setting,value
C[C@@H](Oc1cc(-c2cnn(C3CCNCC3)c2)cnc1N)c1c(Cl)ccc(F)c1Cl [Crizotinib],reversal of HGF-conferred BRAF/MEK inhibitor resistance,[1],directly reversed
same,synergistic effect of Crizotinib,"DLD-1 cells; DLD-1 cells, FIG. 9B",no substantial synergistic effect
same,sensitivity of colorectal cancer cell line to BRAFi on addition of Crizotinib,"DLD-1 cells; cell line printed as DLD-1, BRAF V600E",restores full sensitivity
CC(C)(C)c1nc(-c2cccc(NS(=O)(=O)c3c(F)cccc3F)c2F)c(-c2ccnc(N)n2)s1 [GSK2118436],Response (Max),[2],9% and 40%
same,Time to progression (months),[2],3.5 months and 2.5 months
CCCS(=O)(=O)Nc1ccc(F)c(C(=O)c2c[nH]c3ncc(-c4ccc(Cl)cc4)cc23)c1F [Vemurafenib],Response (Max),[2],90% and 72% (2×) and 50% and 100% and 25% and 23% and 22% and 10% and 0% (4×) and 54% and 34% and 20% and 56% and 27%
same,"Response (Max), category",[2],POD
same,Time to progression (months),[2],7 months and 3.2 months and 5 months (2×) and 3 months and 12.4 months and 8 months and 5.4 months and 4.5 months and 8.5 months and 6.0 months and 7.3 months and 3.5 months and 6.5 months and 1.3 months
"EGF: RTK ligand (EGFR), cytokine tested",ability of recombinant RTK ligand to confer resistance,"[3]; A2058, PD184352 - 1 uM, ligand 0.4 ng/ml",1.05
same,ability of recombinant RTK ligand to confer resistance,"[3]; A2058, PD184352 - 1 uM, ligand 1.6 ng/ml",1.04
same,ability of recombinant RTK ligand to confer resistance,"[3]; A2058, PD184352 - 1 uM, ligand 6.25 ng/ml",0.95
same,ability of recombinant RTK ligand to confer resistance,"[3]; A2058, PD184352 - 1 uM, ligand 25 ng/ml",0.96
same,ability of recombinant RTK ligand to confer resistance,"[3]; A2058, PD184352 - 1 uM, ligand 100 ng/ml",1.00
same,ability of recombinant RTK ligand to confer resistance,"[3]; A2058, PLX4720 - 2 uM, ligand 0.4 ng/ml",1.02
same,ability of recombinant RTK ligand to confer resistance,"[3]; A2058, PLX4720 - 2 uM, ligand 1.6 ng/ml",1.03
same,ability of recombinant RTK ligand to confer resistance,"[3]; A2058, PLX4720 - 2 uM, ligand 6.25 ng/ml",0.93
same,ability of recombinant RTK ligand to confer resistance,"[3]; A2058, PLX4720 - 2 uM, ligand 25 ng/ml",0.97
same,ability of recombinant RTK ligand to confer resistance,"[3]; A2058, PLX4720 - 2 uM, ligand 100 ng/ml",0.99
same,ability of recombinant RTK ligand to confer resistance,"[3]; C32, PD184352 - 1 uM, ligand 0.4 ng/ml",1.01
same,ability of recombinant RTK ligand to confer resistance,"[3]; C32, PD184352 - 1 uM, ligand 1.6 ng/ml",0.97
same,ability of recombinant RTK ligand to confer resistance,"[3]; C32, PD184352 - 1 uM, ligand 6.25 ng/ml",1.06
same,ability of recombinant RTK ligand to confer resistance,"[3]; C32, PD184352 - 1 uM, ligand 25 ng/ml",1.01
same,ability of recombinant RTK ligand to confer resistance,"[3]; C32, PD184352 - 1 uM, ligand 100 ng/ml",0.99
same,ability of recombinant RTK ligand to confer resistance,"[3]; C32, PLX4720 - 2 uM, ligand 0.4 ng/ml",1.06
same,ability of recombinant RTK ligand to confer resistance,"[3]; C32, PLX4720 - 2 uM, ligand 1.6 ng/ml",0.94
same,ability of recombinant RTK ligand to confer resistance,"[3]; C32, PLX4720 - 2 uM, ligand 6.25 ng/ml",1.03
same,ability of recombinant RTK ligand to confer resistance,"[3]; C32, PLX4720 - 2 uM, ligand 25 ng/ml",0.93
same,ability of recombinant RTK ligand to confer resistance,"[3]; C32, PLX4720 - 2 uM, ligand 100 ng/ml",0.99
same,ability of recombinant RTK ligand to confer resistance,"[3]; Colo 829, PD184352 - 1 uM, ligand 0.4 ng/ml",0.97
same,ability of recombinant RTK ligand to confer resistance,"[3]; Colo 829, PD184352 - 1 uM, ligand 1.6 ng/ml",0.96
same,ability of recombinant RTK ligand to confer resistance,"[3]; Colo 829, PD184352 - 1 uM, ligand 6.25 ng/ml",0.99
same,ability of recombinant RTK ligand to confer resistance,"[3]; Colo 829, PD184352 - 1 uM, ligand 25 ng/ml",0.94
same,ability of recombinant RTK ligand to confer resistance,"[3]; Colo 829, PD184352 - 1 uM, ligand 100 ng/ml",1.00
same,ability of recombinant RTK ligand to confer resistance,"[3]; Colo 829, PLX4720 - 2 uM, ligand 0.4 ng/ml",1.02
same,ability of recombinant RTK ligand to confer resistance,"[3]; Colo 829, PLX4720 - 2 uM, ligand 1.6 ng/ml",1.00
same,ability of recombinant RTK ligand to confer resistance,"[3]; Colo 829, PLX4720 - 2 uM, ligand 6.25 ng/ml",1.00
same,ability of recombinant RTK ligand to confer resistance,"[3]; Colo 829, PLX4720 - 2 uM, ligand 25 ng/ml",0.97
same,ability of recombinant RTK ligand to confer resistance,"[3]; Colo 829, PLX4720 - 2 uM, ligand 100 ng/ml",1.01
same,ability of recombinant RTK ligand to confer resistance,"[3]; G-361, PD184352 - 1 uM, ligand 0.4 ng/ml",1.01
same,ability of recombinant RTK ligand to confer resistance,"[3]; G-361, PD184352 - 1 uM, ligand 1.6 ng/ml",0.90
same,ability of recombinant RTK ligand to confer resistance,"[3]; G-361, PD184352 - 1 uM, ligand 6.25 ng/ml",0.97
same,ability of recombinant RTK ligand to confer resistance,"[3]; G-361, PD184352 - 1 uM, ligand 25 ng/ml",1.00
same,ability of recombinant RTK ligand to confer resistance,"[3]; G-361, PD184352 - 1 uM, ligand 100 ng/ml",0.96
same,ability of recombinant RTK ligand to confer resistance,"[3]; G-361, PLX4720 - 2 uM, ligand 0.4 ng/ml",0.98
same,ability of recombinant RTK ligand to confer resistance,"[3]; G-361, PLX4720 - 2 uM, ligand 1.6 ng/ml",0.90
same,ability of recombinant RTK ligand to confer resistance,"[3]; G-361, PLX4720 - 2 uM, ligand 6.25 ng/ml",0.94
same,ability of recombinant RTK ligand to confer resistance,"[3]; G-361, PLX4720 - 2 uM, ligand 25 ng/ml",0.99
same,ability of recombinant RTK ligand to confer resistance,"[3]; G-361, PLX4720 - 2 uM, ligand 100 ng/ml",0.93
same,ability of recombinant RTK ligand to confer resistance,"[3]; SK-MEL-5, PD184352 - 1 uM, ligand 0.4 ng/ml",0.99
same,ability of recombinant RTK ligand to confer resistance,"[3]; SK-MEL-5, PD184352 - 1 uM, ligand 1.6 ng/ml",1.04
same,ability of recombinant RTK ligand to confer resistance,"[3]; SK-MEL-5, PD184352 - 1 uM, ligand 6.25 ng/ml",1.08
same,ability of recombinant RTK ligand to confer resistance,"[3]; SK-MEL-5, PD184352 - 1 uM, ligand 25 ng/ml",1.11
same,ability of recombinant RTK ligand to confer resistance,"[3]; SK-MEL-5, PD184352 - 1 uM, ligand 100 ng/ml",1.01
same,ability of recombinant RTK ligand to confer resistance,"[3]; SK-MEL-5, PLX4720 - 2 uM, ligand 0.4 ng/ml",1.08
same,ability of recombinant RTK ligand to confer resistance,"[3]; SK-MEL-5, PLX4720 - 2 uM, ligand 1.6 ng/ml",1.15
same,ability of recombinant RTK ligand to confer resistance,"[3]; SK-MEL-5, PLX4720 - 2 uM, ligand 6.25 ng/ml",1.19
same,ability of recombinant RTK ligand to confer resistance,"[3]; SK-MEL-5, PLX4720 - 2 uM, ligand 25 ng/ml",1.22
same,ability of recombinant RTK ligand to confer resistance,"[3]; SK-MEL-5, PLX4720 - 2 uM, ligand 100 ng/ml",1.11
same,ability of recombinant RTK ligand to confer resistance,"[3]; SK-MEL-28, PD184352 - 1 uM, ligand 0.4 ng/ml",1.03
same,ability of recombinant RTK ligand to confer resistance,"[3]; SK-MEL-28, PD184352 - 1 uM, ligand 1.6 ng/ml",0.97
same,ability of recombinant RTK ligand to confer resistance,"[3]; SK-MEL-28, PD184352 - 1 uM, ligand 6.25 ng/ml",0.93
same,ability of recombinant RTK ligand to confer resistance,"[3]; SK-MEL-28, PD184352 - 1 uM, ligand 25 ng/ml",0.97
same,ability of recombinant RTK ligand to confer resistance,"[3]; SK-MEL-28, PD184352 - 1 uM, ligand 100 ng/ml",1.05
same,ability of recombinant RTK ligand to confer resistance,"[3]; SK-MEL-28, PLX4720 - 2 uM, ligand 0.4 ng/ml",1.00
same,ability of recombinant RTK ligand to confer resistance,"[3]; SK-MEL-28, PLX4720 - 2 uM, ligand 1.6 ng/ml",1.01
same,ability of recombinant RTK ligand to confer resistance,"[3]; SK-MEL-28, PLX4720 - 2 uM, ligand 6.25 ng/ml",0.97
same,ability of recombinant RTK ligand to confer resistance,"[3]; SK-MEL-28, PLX4720 - 2 uM, ligand 25 ng/ml",0.94
same,ability of recombinant RTK ligand to confer resistance,"[3]; SK-MEL-28, PLX4720 - 2 uM, ligand 100 ng/ml",1.03
same,re-activation of pERK/pAKT,pERK/pAKT,reactivate only ERK
"FGF-1: RTK ligand (FGFR), cytokine tested",re-activation of pERK/pAKT,pERK/pAKT,reactivate only ERK
IGF-1: RTK ligand of IGF-1R,ability of RTK ligand to confer primary resistance,"[3]; six V600E BRAF melanoma cell lines, BRAFi (PLX4720) or MEKi (PD184352)",not shown to induce primary resistance
same,re-activation of pERK/pAKT,pERK/pAKT,only reactivate AKT
